In patent publication US20260125389A1, “MEMBRANE-ASSOCIATED TYROSINE AND THREONINE KINASE INHIBITOR AND USE THEREOF” (HAINAN SIMCERE ZAIMING PHARMACEUTICAL CO., LTD., priority 2022, published 2026):

Tested on: HCC1569 cells
Test: Inhibition of tumor cell proliferation (CTG, HCC1569)
Format: cell-based
Conditions: Homo sapiens, 168 h, 7 days incubation, CTG readout, read-out: IC50 of compounds for inhibition of HCC1569 cell growth
Method: Experimental principle: The compound was incubated with tumor cells for 7 days, and ATP in viable cells was quantified using the CTG kit from Promega to evaluate the effect of the compound on tumor cell proliferation.
Experimental method: The cultured cells were resuspended after being rinsed with PBS (for adherent cells) and digested with 0.25% Trypsin-EDTA, followed by cell counting to determine cell density and viability. 3000 HCC1569 cells/well were diluted with RPMI Medium 1640 containing 10% FBS, added to a 96-well plate (90 μL/well), and cultured in an incubator at 37° C. with 5% CO2 for 24 h. The test compound was diluted to different concentrations in dimethyl sulfoxide (DMSO) and added to a 96-well plate. Thus, the final concentration of the compound in the reaction system started at 25 μM and was subjected to a 4-fold serial dilution, with the final DMSO concentration maintained at 0.25%. The compound and cells were further incubated at 37° C. with 5% CO2 for 7 days. 50 μL/well of CTG was then added to measure the inhibitory effect of the compound on tumor cell growth, and the inhibition rate and half-maximal inhibitory concentration (IC50) were calculated.
The % compound inhibition was calculated and fitted using XLfit software to obtain the IC50 of the compound.
Blank wells and DMSO wells were set up. The blank well contained 100 μL of RPMI Medium 1640 with 10% FBS, where the inhibition rate of the compound on tumor cell growth was considered 100%. The DMSO well contained 0.25% DMSO added to the cell well, where the inhibition rate of the compound on tumor cell growth was considered 0%.

SMILES	IC50 [nM]
Cc1nc2c3c(c(N)n(-c4c(C)ccc(O)c4C)c3n1)C(=O)Nc1sncc1-2 [Compound 37, 5-amino-4-(3-hydroxy-2,6-dimethylphenyl)-2-methyl-4,7-dihydro-6H-8-thia-1,3,4,7,9-pentaazabenzo[cd]cyclopenta[f]azulen-6-one]	33.8
Cc1nc2c3c(c(N)n(-c4c(C)ccc(O)c4C)c3n1)C(=O)Nc1c-2cnn1C1CC1 [Compound 33, 5-amino-8-cyclopropyl-4-(3-hydroxy-2,6-dimethylphenyl)-2-methyl-7,8-dihydro-1,3,4,7,8,9-hexaazabenzo[cd]cyclopenta[f]azulen-6(4H)-one]	49
Cc1nc2c3c(c(N)n(-c4c(C)ccc(O)c4C)c3n1)C(=O)NCc1c-2ccnc1OC(F)(F)F [Compound 41, 2-amino-1-(3-hydroxy-2,6-dimethylphenyl)-11-methyl-6-(trifluoromethoxy)-4,5-dihydro-1,4,7,10,12-pentaazabenzo[4,5]cyclooctatetraeno[1,2,3-cd]inden-3(1H)-one]	86.1
Cc1ccc(O)c(C)c1-n1c(N)c2c3c(c(C)c(C)nc31)-c1nn(C)cc1NC2=O [Compound 44, 5-amino-4-(3-hydroxy-2,6-dimethylphenyl)-1,2,9-trimethyl-7,9-dihydro-3,4,7,9,10-pentaazabenzo[cd]cyclopenta[f]azulen-6(4H)-one]	55.2
Cc1nc2c3c(c(N)n(-c4c(C)ccc(O)c4C)c3n1)C(=O)NCc1c-2ccnc1OC(F)F [Compound 39, 2-amino-6-(difluoromethoxy)-1-(3-hydroxy-2,6-dimethylphenyl)-11-methyl-4,5-dihydro-1,4,7,10,12-pentaazabenzo[4,5]cyclooctatetraeno[1,2,3-cd]inden-3(1H)-one]	81.9
Cc1nc2c3c(c(N)n(-c4c(C)ccc(O)c4C)c3n1)C(=O)NCc1ncccc1-2 [Compound 4, 2-amino-1-(3-hydroxy-2,6-dimethylphenyl)-11-methyl-4,5-dihydro-1,4,6,10,12-pentaazabenzo[4,5]cyclooctatetraeno[1,2,3-cd]inden-3(1H)-one]	240
Cc1nc2c3c(c(N)n(-c4c(C)ccc(O)c4C)c3n1)C(=O)NCc1nc(C(F)(F)F)ccc1-2 [Compound 29, 2-amino-1-(3-hydroxy-2,6-dimethylphenyl)-11-methyl-7-(trifluoromethyl)-4,5-dihydro-1,4,6,10,12-pentaazabenzo[4,5]cyclooctatetraeno[1,2,3-cd]inden-3(1H)-one]	562
Cc1nc2c3c(c(N)n(-c4c(C)ccc(O)c4C)c3n1)C(=O)Nc1ncccc1-2 [Compound 17, 5-amino-4-(3-hydroxy-2,6-dimethylphenyl)-2-methyl-4,7-dihydro-6H-1,3,4,7,8-pentaazadibenzo[cd,f]azulen-6-one]	24.6
Cc1nc2c3c(c(N)n(-c4c(C)ccc(O)c4C)c3n1)C(=O)Nc1cnccc1-2 [Compound 18, 5-amino-4-(3-hydroxy-2,6-dimethylphenyl)-2-methyl-4,7-dihydro-6H-1,3,4,7,9-pentaazadibenzo[cd,f]azulen-6-one]	11
Cc1ccc2c(n1)CNC(=O)c1c(N)n(-c3c(C)ccc(O)c3C)c3nc(C)nc-2c13 [Compound 9, 2-amino-1-(3-hydroxy-2,6-dimethylphenyl)-7,11-dimethyl-4,5-dihydro-1,4,6,10,12-pentaazabenzo[4,5]cyclooctatetraeno[1,2,3-cd]inden-3(1H)-one]	210
Cc1nc2c3c(c(N)n(-c4c(C)ccc(O)c4C)c3n1)C(=O)NCc1c-2ccc(F)c1C#N [Compound 49, 2-amino-7-fluoro-1-(3-hydroxy-2,6-dimethylphenyl)-11-methyl-3-oxo-1,3,4,5-tetrahydro-1,4,10,12-tetraazabenzo[4,5]cyclooctatetraeno[1,2,3-cd]inden-6-carbonitrile]	20.9
COc1cccc2c1CNC(=O)c1c(N)n(-c3c(C)ccc(O)c3C)c3nc(C)nc-2c13 [Compound 11, 2-amino-1-(3-hydroxy-2,6-dimethylphenyl)-6-methoxy-11-methyl-4,5-dihydro-1,4,10,12-tetraazabenzo[4,5]cyclooctatetraeno[1,2,3-cd]inden-3(1H)-one]	59.2
Cc1nc2c3c(c(N)n(-c4c(C)ccc(O)c4C)c3n1)C(=O)Nc1nn(C)cc1-2 [Compound 13, 2-amino-1-(3-hydroxy-2,6-dimethylphenyl)-6,9-dimethyl-4,6-dihydro-1,4,5,6,8,10-hexaazabenzo[cd]cyclopenta[f]azulen-3(1H)-one]	27.3
Cc1nc2c3c(c(N)n(-c4c(C)ccc(O)c4C)c3n1)C(=O)Nc1c-2cnn1C [Compound 12, 5-amino-4-(3-hydroxy-2,6-dimethylphenyl)-2,8-dimethyl-7,8-dihydro-1,3,4,7,8,9-hexaazabenzo[cd]cyclopenta[f]azulen-6(4H)-one]	9.2
Cc1nc2c3c(c(N)n(-c4c(C)ccc(O)c4C)c3n1)C(=O)NCc1nn(C)cc1-2 [Compound 8, 2-amino-1-(3-hydroxy-2,6-dimethylphenyl)-7,10-dimethyl-1,4,5,7-tetrahydro-3H-1,4,6,7,9,11-hexaazacyclopenta[4,5]cyclooctatetraeno[1,2,3-cd]inden-3-one]	768
Cc1nc2c3c(c(N)n(-c4c(C)ccc(O)c4C)c3n1)C(=O)Nc1c(F)cncc1-2 [Compound 16, 5-amino-8-fluoro-4-(3-hydroxy-2,6-dimethylphenyl)-2-methyl-4,7-dihydro-6H-1,3,4,7,10-pentaazadibenzo[cd,f]azulen-6-one]	264
CCc1nccc2c1CNC(=O)c1c(N)n(-c3c(C)ccc(O)c3C)c3nc(C)nc-2c13 [Compound 35, 2-amino-6-ethyl-1-(3-hydroxy-2,6-dimethylphenyl)-11-methyl-4,5-dihydro-1,4,7,10,12-pentaazabenzo[4,5]cyclooctatetraeno[1,2,3-cd]inden-3(1H)-one]	40.5
Cc1nc2c3c(c(N)n(-c4c(C)ccc(O)c4C)c3n1)C(=O)NCc1c-2ccnc1C#N [Compound 45, 2-amino-1-(3-hydroxy-2,6-dimethylphenyl)-11-methyl-3-oxo-1,3,4,5-tetrahydro-1,4,7,10,12-pentaazabenzo[4,5]cyclooctatetraeno[1,2,3-cd]indene-6-carbonitrile]	194
COCCn1ncc2c1NC(=O)c1c(N)n(-c3c(C)ccc(O)c3C)c3nc(C)nc-2c13 [Compound 43, 5-amino-4-(3-hydroxy-2,6-dimethylphenyl)-8-(2-methoxyethyl)-2-methyl-7,8-dihydro-1,3,4,7,8,9-hexaazabenzo[cd]cyclopenta[f]azulen-6(4H)-one]	291
Cc1nc2c3c(c(N)n(-c4c(C)ccc(O)c4C)c3n1)C(=O)Nc1ccncc1-2 [Compound 19, 5-amino-4-(3-hydroxy-2,6-dimethylphenyl)-2-methyl-4,7-dihydro-6H-1,3,4,7,10-pentaazadibenzo[cd,f]azulen-6-one]	50
Cc1nc2c3c(c(N)n(-c4c(C)ccc(O)c4C)c3n1)C(=O)Nc1scnc1-2 [Compound 38, 5-amino-4-(3-hydroxy-2,6-dimethylphenyl)-2-methyl-4,7-dihydro-6H-8-thia-1,3,4,7,10-pentaazabenzo[cd]cyclopenta[f]azulen-6-one]	92
Cc1nc2c3c(c(N)n(-c4c(C)ccc(O)c4C)c3n1)C(=O)NCc1c-2ccnc1C [Compound 36, 2-amino-1-(3-hydroxy-2,6-dimethylphenyl)-6,11-dimethyl-4,5-dihydro-1,4,7,10,12-pentaazabenzo[4,5]cyclooctatetraeno[1,2,3-cd]inden-3(1H)-one]	63.8
Cc1nc2c3c(c(N)n(-c4c(C)ccc(O)c4C)c3n1)C(=O)Nc1c-2c(C)nn1C [Compound 34, 2-amino-1-(3-hydroxy-2,6-dimethylphenyl)-5,7,9-trimethyl-4,5-dihydro-1,4,5,6,8,10-hexaazabenzo[cd]cyclopenta[f]azulen-3(1H)-one]	9.1
Cc1nc2c3c(c(N)n(-c4c(C)ccc(O)c4C)c3n1)C(=O)NCc1c-2ccnc1C1CC1 [Compound 46, 2-amino-6-cyclopropyl-1-(3-hydroxy-2,6-dimethylphenyl)-11-methyl-4,5-dihydro-1,4,7,10,12-pentaazabenzo[4,5]cyclooctatetraeno[1,2,3-cd]inden-3(1H)-one]	113
Cc1nc2c3c(c(N)n(-c4c(C)ccc(O)c4C)c3n1)C(=O)Nc1nn(CC(F)(F)F)cc1-2 [Compound 14, 2-amino-1-(3-hydroxy-2,6-dimethylphenyl)-9-methyl-6-(2,2,2-trifluoroethyl)-4,6-dihydro-1,4,5,6,8,10-hexaazabenzo[cd]cyclopenta[f]azulen-3(1H)-one]	254
CCOc1nccc2c1CNC(=O)c1c(N)n(-c3c(C)ccc(O)c3C)c3nc(C)nc-2c13 [Compound 47, 2-amino-6-ethoxy-1-(3-hydroxy-2,6-dimethylphenyl)-11-methyl-4,5-dihydro-1,4,7,10,12-pentaazabenzo[4,5]cyclooctatetraeno[1,2,3-cd]inden-3(1H)-one]	32
Cc1nc2c3c(c(N)n(-c4c(C)ccc(O)c4C)c3n1)C(=O)NCc1c-2ccnc1OCF [Compound 40, 2-amino-6-(fluoromethoxy)-1-(3-hydroxy-2,6-dimethylphenyl)-11-methyl-4,5-dihydro-1,4,7,10,12-pentaazabenzo[4,5]cyclooctatetraeno[1,2,3-cd]inden-3(1H)-one]	87.6
